Data from patent US10392422B2, “Macrocyclic broad spectrum antibiotics” (priority 2014, dated 2019).
In brackets after ≈: the same amount, converted by molar mass. Where two headings read alike, the source gives them in different places.

How the values were obtained:
[1] = system: Methicillin Resistant Staphylococcus aureus strain USA 300 (NRS384); experiment: MIC, broth micro-dilution technique (CLSI); assay type: cell-based; conditions: for MIC: Staphylococcus aureus, 22 h, read-out: MIC (μg/mL) S. aureus
Method: (§1) In vitro antimicrobial activity of each compound was determined by measuring minimal inhibitor concentrations (MICs) using the broth micro-dilution technique as approved by the Clinical and Laboratory Standards Institute (CLSI) (Methods for Dilution Antimicrobial Susceptibility Tests for Bacteria that Grow Aerobically; Approved Standard—Eighth Edition. CLSI document M07-A8. Wayne, Pa.: Clinical and Laboratory Standards; 2009). Antibacterial activity was measured against three strains of bacteria: a Methicillin Resistant Staphylococcus aureus strain USA 300 (NRS384); a MRSA COL (NRS100), another Methicillin Resistant Staphylococcus aureus strain; and a strain of Escherichia coli MC4100 harboring the IMP4213, which results in increased outer-membrane permeability (B Martin and Silhavy T. Imp/OstA is required for cell envelope biogenesis in Escherichia coli. (2002) Molecular Microbiology, 45(5), 1289-1302). Cells were inoculated onto plates of Trypyticase Soy Agar or Luria Agar respectively and grown at 35° C. for 20 hours. Inocula suspensions were prepared by scraping cells into 1 ml of testing media (cation adjusted Mueller Hinton Broth supplemented with 0.002% v/v Tween-80) and diluting to a final OD600 nm of 0.01.
(§2) Test compounds were prepared in DMSO at a concentration of 10 mg/ml. These compound stocks were diluted into testing media at a concentration of 64 μg/ml and serial 2-fold dilutions were made in the same media, in 96-well U bottom microtiter dishes, for a total of 10 compound concentrations (Table 1). In modified protocols (Table 2), compound stocks were diluted into testing media at a concentration of 4 μg/mL and serial 2-fold dilutions were made in the same media, in 96-well U bottom microtiter dishes, for a total of 10 compound concentrations. Inocula suspensions were added to the 2-fold serial dilutions of test compounds to a final density of OD OD600 nm of 0.0005 and incubated at 35° C. for 22 hours. […] The results from the protocol starting from a concentration of 64 µg/mL are listed in Table 1 and the results from the modified protocol are shown in Table 2.

[2] = system: Escherichia coli MC4100 harboring the IMP4213; experiment: MIC, broth micro-dilution technique (CLSI); assay type: cell-based; conditions: 35° C., 22 hours; for MIC: Escherichia coli, 22 h, read-out: MIC (μg/mL) E. coli, Table 1 protocol: serial 2-fold dilutions starting from 64 μg/ml; for MIC (μg/mL) E. coli: Table 1 protocol: serial 2-fold dilutions starting from 64 μg/ml
Method: as §1, §2

[3] = Table 1 protocol: serial 2-fold dilutions starting from 64 μg/ml, 35° C., 22 hours

| SMILES | MIC [1] | MIC [2] | MIC (μg/mL) S. aureus [1, 3] | MIC (μg/mL) E. coli [2] | MIC [1, 3] |
| --- | --- | --- | --- | --- | --- |
| CCCCCCCC(=O)NCCC(=O)N[C@@H](CCCCN)C(=O)N(C)[C@@H]1C(=O)N[C@@H](C)C(=O)N[C@H](C(=O)N[C@@H](C)C(=O)C2CO2)Cc2ccc(O)c(c2)-c2cc1ccc2O (stereo partly drawn) [Compound 101] | 64 µg/mL (≈ 76.6 µM) | > 64 µg/mL | – | – | – |
| CCCCCCCC(=O)NCCC(=O)N[C@@H](CCCCN)C(=O)N(C)[C@@H]1C(=O)N[C@@H](C)C(=O)N[C@H](C(=O)N[C@@H](C)C(=O)C2CO2)Cc2ccc(O)c(c2)-c2cc1ccc2O (stereo partly drawn) [Compound 102] | – | – | 64 µg/mL (≈ 76.6 µM) | >64 µg/mL | – |
| CCCCCCCC(=O)N[C@@H](CCCCN)C(=O)N(C)[C@@H]1C(=O)N[C@@H](C)C(=O)N[C@H](C(=O)N[C@@H](C)C(=O)C2CO2)Cc2ccc(O)c(c2)-c2cc1ccc2O (stereo partly drawn) [Compound 103] | – | 23 µg/mL (≈ 30.1 µM) | – | – | 45 µg/mL (≈ 58.8 µM) |
| CC1OC1C(=O)[C@H](C)NC(=O)[C@@H]1Cc2ccc(O)c(c2)-c2cc(ccc2O)[C@H](N(C)C(=O)[C@H](CCCCN)NC(=O)c2ccc(-c3ccc(Cl)cc3)cc2)C(=O)N[C@@H](C)C(=O)N1 (stereo partly drawn) [Compound 105] | – | 8 µg/mL (≈ 9.22 µM) | – | – | 4 µg/mL (≈ 4.61 µM) |
| CC1OC1C(=O)[C@H](C)NC(=O)[C@@H]1Cc2ccc(O)c(c2)-c2cc(ccc2O)[C@H](N(C)C(=O)[C@H](CCCCN)NC(=O)c2ccc(-c3ccc(Cl)cc3)cc2)C(=O)N[C@@H](C)C(=O)N1 (stereo partly drawn) [Compound 106] | – | – | 5.7 µg/mL (≈ 6.57 µM) | 11 µg/mL (≈ 12.7 µM) | – |
| CCCCCCCC(=O)NCCC(=O)N[C@@H](CCCCN)C(=O)N(C)[C@@H]1C(=O)N[C@@H](C)C(=O)N[C@H](C(=O)N[C@@H](C)C(=O)CCl)Cc2ccc(O)c(c2)-c2cc1ccc2O [Compound 107] | 64 µg/mL (≈ 76 µM) | > 64 µg/mL | – | – | – |
| C[C@H](NC(=O)[C@@H]1Cc2ccc(O)c(c2)-c2cc(ccc2O)[C@H](N(C)C(=O)[C@H](CCCCN)NC(=O)c2ccc(-c3ccc(Cl)cc3)cc2)C(=O)N[C@@H](C)C(=O)N1)C(=O)CCl [Compound 108] | 4 µg/mL (≈ 4.65 µM) | 8 µg/mL (≈ 9.3 µM) | – | – | – |
| C[C@H](NC(=O)[C@@H]1Cc2ccc(O)c(c2)-c2cc(ccc2O)[C@H](N(C)C(=O)[C@H](CCCCN)NC(=O)c2ccc(-c3ccc(Cl)cc3)cc2)C(=O)N[C@@H](C)C(=O)N1)C(=O)COC(=O)c1ncccn1 [Compound 122] | 1.4 µg/mL (≈ 1.48 µM) | 32 µg/mL (≈ 33.8 µM) | – | – | – |
| CC(=O)OCC(=O)[C@H](C)NC(=O)[C@@H]1Cc2ccc(O)c(c2)-c2cc(ccc2O)[C@H](N(C)C(=O)[C@H](CCCCN)NC(=O)c2ccc(-c3ccc(Cl)cc3)cc2)C(=O)N[C@@H](C)C(=O)N1 [Compound 123] | 3.2 µg/mL (≈ 3.62 µM) | 32 µg/mL (≈ 36.2 µM) | – | – | – |
| COC(=O)[C@@H]1CCCN1CC(=O)[C@H](C)NC(=O)[C@@H]1Cc2ccc(O)c(c2)-c2cc(ccc2O)[C@H](N(C)C(=O)[C@H](CCCCN)NC(=O)c2ccc(-c3ccc(Cl)cc3)cc2)C(=O)N[C@@H](C)C(=O)N1 [Compound 126] | 32 µg/mL (≈ 33.6 µM) | > 64 µg/mL | – | – | – |
| CC[C@H](NC(=O)[C@@H]1Cc2ccc(O)c(c2)-c2cc(ccc2O)[C@H](N(C)C(=O)[C@H](CCCCN)NC(=O)c2ccc(-c3ccc(Cl)cc3)cc2)C(=O)N[C@@H](C)C(=O)N1)C(C)=O [Compound 127] | > 64 µg/mL | 64 µg/mL (≈ 76.2 µM) | – | – | – |
| C[C@H](NC(=O)[C@@H]1Cc2ccc(O)c(c2)-c2cc(ccc2O)[C@H](N(C)C(=O)[C@H](CCCCN)NC(=O)c2ccc(-c3ccc(Cl)cc3)cc2)C(=O)N[C@@H](C)C(=O)N1)C(=O)/C=C/c1c[nH]cn1 [Compound 131] | – | > 64 µg/mL | – | – | > 64 µg/mL |
| C[C@H](NC(=O)[C@@H]1Cc2ccc(O)c(c2)-c2cc(ccc2O)[C@H](N(C)C(=O)[C@H](CCCCN)NC(=O)c2ccc(-c3ccc(Cl)cc3)cc2)C(=O)N[C@@H](C)C(=O)N1)C(=O)CS(N)(=O)=O [Compound 143] | 6.3 µg/mL (≈ 6.97 µM) | 51 µg/mL (≈ 56.4 µM) | – | – | – |
| C[C@@H]1NC(=O)[C@@H](N(C)C(=O)[C@H](CCCCN)NC(=O)c2ccc(-c3ccc(Cl)cc3)cc2)c2ccc(O)c(c2)-c2cc(ccc2O)C[C@@H](C(=O)NCC(=O)CC2CCNC2=O)NC1=O (stereo partly drawn) [Compound 150] | – | – | – | 8 µg/mL (≈ 8.94 µM) | > 64 µg/mL |
| C[C@@H]1NC(=O)[C@@H](N(C)C(=O)[C@H](CCCCN)NC(=O)c2ccc(-c3ccc(Cl)cc3)cc2)c2ccc(O)c(c2)-c2cc(ccc2O)C[C@@H](C(=O)NCC(=O)CC2CCNC2=O)NC1=O (stereo partly drawn) [Compound 151] | – | – | >64 µg/mL | 32 µg/mL (≈ 35.8 µM) | – |
| CCCCCCCC(=O)NCCC(=O)N[C@@H](CCCCN)C(=O)N(C)[C@@H]1C(=O)N[C@@H](C)C(=O)N[C@H](CO)Cc2ccc(O)c(c2)-c2cc1ccc2O [Compound 153] | – | – | – | – | 130 µg/mL (≈ 179 µM) |
| CC(O)[C@@H]1Cc2ccc(O)c(c2)-c2cc(ccc2O)[C@H](N(C)C(=O)[C@H](CCCCN)NC(=O)c2ccc(-c3ccc(Cl)cc3)cc2)C(=O)N[C@@H](C)C(=O)N1 (stereo partly drawn) [Compound 154] | 64 µg/mL (≈ 84.6 µM) | 64 µg/mL (≈ 84.6 µM) | – | – | – |
| C[C@@H]1NC(=O)[C@@H](N(C)C(=O)[C@H](CCCCN)NC(=O)c2ccc(-c3ccc(Cl)cc3)cc2)c2ccc(O)c(c2)-c2cc(ccc2O)C[C@@H](C(=O)N[C@@H](C)C(=O)N2CCCC2)NC1=O [Compound 156] | > 64 µg/mL | 51 µg/mL (≈ 57.9 µM) | – | – | – |
| C[C@@H]1NC(=O)[C@@H](N(C)C(=O)[C@H](CCCCN)NC(=O)c2ccc(-c3ccc(Cl)cc3)cc2)c2ccc(O)c(c2)-c2cc(ccc2O)C[C@@H](C(=O)N[C@@H](C)C(=O)N2CCC[C@H]2CO)NC1=O [Compound 157] | > 64 µg/mL | 45 µg/mL (≈ 49.4 µM) | – | – | – |
| C[C@@H]1NC(=O)[C@@H](N(C)C(=O)[C@H](CCCCN)NC(=O)c2ccc(-c3ccc(Cl)cc3)cc2)c2cc(Br)c(O)c(c2)-c2cc(cc(Br)c2O)C[C@@H](C(=O)O)NC1=O [Compound 164] | 32 µg/mL (≈ 35 µM) | 8 µg/mL (≈ 8.75 µM) | – | – | – |
| C[C@@H]1NC(=O)[C@@H](N(C)C(=O)[C@H](CCCCN)NC(=O)c2ccc(-c3ccc(Cl)cc3)cc2)c2ccc(O)c(c2)-c2cc(cc(Br)c2O)C[C@@H](C(=O)O)NC1=O [Compound 165] | 45 µg/mL (≈ 53.9 µM) | 11 µg/mL (≈ 13.2 µM) | – | – | – |
| C[C@@H]1NC(=O)[C@@H](N(C)C(=O)[C@H](CCCCN)NC(=O)c2ccc(-c3ccc(Cl)cc3)cc2)c2ccc(O)c(c2)-c2cc(ccc2O)C[C@@H](C(=O)N[C@@H](C)C(=O)N2CC[C@H](O)[C@H]2C(N)=O)NC1=O [Compound 168] | – | 32 µg/mL (≈ 34.1 µM) | – | – | 5.7 µg/mL (≈ 6.07 µM) |
| C[C@@H]1NC(=O)[C@@H](N(C)C(=O)[C@H](CCCCN)NC(=O)c2ccc(-c3ccc(Cl)cc3)cc2)c2ccc(O)c(c2)-c2cc(ccc2O)C[C@@H](C(=O)N[C@@H](C)C(=O)N2C[C@H](O)C[C@H]2C(N)=O)NC1=O [Compound 169] | – | 64 µg/mL (≈ 68.1 µM) | – | – | 45 µg/mL (≈ 47.9 µM) |
| CCCCc1ccc(-c2ccc(C(=O)NC[C@@H](C)C(=O)N[C@@H](CCCCN)C(=O)N(C)[C@@H]3C(=O)N[C@@H](C)C(=O)N[C@H](C(=O)N[C@@H](C)C(=O)N4CCC[C@H]4C(N)=O)Cc4ccc(O)c(c4)-c4cc3ccc4OC(=O)OCC(C)C)cc2)cc1 [Compound 184] | 2 µg/mL (≈ 1.77 µM) | – | – | – | – |
| CCCCc1ccc(-c2ccc(C(=O)N[C@@H](CN)C(=O)N(C)[C@@H]3C(=O)N[C@@H](C)C(=O)N[C@H](C(=O)O)Cc4ccc(OCCN)c(c4)-c4cc3ccc4OCCN)cc2)cc1 [Compound 292] | – | 0.063 µg/mL (≈ 0.0766 µM) | – | – | – |
| CCCCCCCCCCCCCC(=O)N[C@@H](CN)C(=O)N(C)[C@@H]1C(=O)N[C@@H](C)C(=O)N[C@H](C(=O)N[C@@H](C)B2O[C@@H]3C[C@@H]4C[C@@H](C4(C)C)[C@]3(C)O2)Cc2ccc(OCCN)c(c2)-c2cc1ccc2OCCN [Compound 318] | – | 0.063 µg/mL (≈ 0.0629 µM) | – | – | – |
